Data reported in US11730720B2, “ALK5 inhibitors” (THERAVANCE BIOPHARMA R&D IP, LLC, priority 2018, dated 2023).

Columns and labels:
[1] = molecular target: T1, recombinant human ALK5 (TGF-βR1) protein (Homo sapiens, UniProt P36897); assay: Biochemical ALK5 (TGF-βR1) assay to measure pKi (LANCE Ultra ULight kinase assay); settings: apparent pKi, converted from pIC50 using the Cheng-Prusoff equation
T1 construct: purchased Life Technologies PR9075A
T1 sequence (P36897 34-503): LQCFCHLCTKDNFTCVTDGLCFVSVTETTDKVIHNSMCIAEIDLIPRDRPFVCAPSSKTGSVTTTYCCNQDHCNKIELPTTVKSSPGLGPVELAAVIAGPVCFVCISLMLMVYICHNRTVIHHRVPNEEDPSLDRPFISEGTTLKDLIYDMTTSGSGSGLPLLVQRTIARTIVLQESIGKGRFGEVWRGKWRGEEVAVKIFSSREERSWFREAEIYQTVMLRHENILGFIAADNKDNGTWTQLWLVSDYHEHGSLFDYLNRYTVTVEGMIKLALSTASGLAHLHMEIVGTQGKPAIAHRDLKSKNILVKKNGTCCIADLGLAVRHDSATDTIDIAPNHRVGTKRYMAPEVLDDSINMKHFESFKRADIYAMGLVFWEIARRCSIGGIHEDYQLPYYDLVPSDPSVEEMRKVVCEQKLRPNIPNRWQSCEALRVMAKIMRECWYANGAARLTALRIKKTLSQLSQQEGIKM
In short: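 TR-FRET kinase format: compound dose range 10 μM–25 pM equilibrated 60 min with human ALK5 and ULight-labelled topoisomerase 2α peptide in HEPES/MgCl2 buffer pH 7.5 with DTT. Reaction started with ATP (125 μM stock, 5× final), 60 min at 37° C, stopped with EDTA/Eu-anti-phospho antibody; pKi derived from pIC50 via Cheng-Prusoff.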

[2] = tested on: TGF-β-stimulated SMAD3 phosphorylation in BEAS-2B cells; assay: Cellular ALK5 potency assay, inhibition of TGF-β stimulated pSMAD3 formation in BEAS-2B cells; assay type: cell-based; settings: Homo sapiens, inhibition of TGF-β (10 ng/mL) stimulated pSMAD3 formation, 1 hour compound incubation, read-out: BEAS2B pIC50 (converted)
In short: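 Phospho-SMAD3 was quantified by AlphaLISA in lysates of human lung epithelial BEAS-2B cells. Compound was added 1 h (37 °C, HEPES/BSA-supplemented HBSS) before a 30 min challenge with 10 ng/mL TGF-β. Values are pIC50 relative to stimulated cells without compound.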

SMILES	Ki [1] [nM]	IC50 [2] [nM]
CC(C)N1CCN(CCNc2cnc3ccc(-c4nc[nH]c4-c4cc(Cl)ccc4F)cc3c2)CC1 [Compound 17-3, 6-(5-(5-chloro-2-fluorophenyl)-1H-imidazol-4-yl)-N-(2-(4-isopropylpiperazin-1-yl)ethyl)quinolin-3-amine]	0.398 to 3.16	25.1 to 158
Fc1ccc(Cl)cc1-c1[nH]cnc1-c1ccc2ncc(N3CCNCC3)cc2c1 [Compound 17-4, 6-(5-(5-chloro-2-fluorophenyl)-1H-imidazol-4-yl)-3-(piperazin-1-yl)quinoline]	0.398 to 3.16	25.1 to 158
Fc1ccc(Cl)cc1-c1[nH]cnc1-c1ccc2ncc(-c3cnc4n3CCNC4)cc2c1 [Compound 17-10, 6-[5-(5-chloro-2-fluoro-phenyl)-1H-imidazol-4-yl]-3-(5,6,7,8-tetrahydroimidazo[1,2-a]pyrazin-3-yl)quinoline]	0.398 to 3.16	25.1 to 158
Fc1ccc(Cl)cc1-c1[nH]cnc1-c1ccc2ncc(-c3nnn4c3CNCC4)cc2c1 [Compound 17-12, 6-[5-(5-chloro-2-fluoro-phenyl)-1H-imidazol-4-yl]-3-(4,5,6,7-tetrahydrotriazolo[1,5-a]pyrazin-3-yl)quinoline]	0.398 to 3.16	25.1 to 158
Fc1ccc(Cl)cc1-c1[nH]cnc1-c1ccc2ncc(-c3cn4c(n3)CNCC4)cc2c1 [Compound 17-14, 6-[5-(5-chloro-2-fluoro-phenyl)-1H-imidazol-4-yl]-3-(5,6,7,8-tetrahydroimidazo[1,2-a]pyrazin-2-yl)quinoline]	0.0398 to 0.316	25.1 to 158
CNCCn1cc(-c2cnc3ccc(-c4nn[nH]c4-c4cc(Cl)ccc4F)cc3c2)cn1 [Compound 18-1, 2-(4-(6-(5-(5-chloro-2-fluorophenyl)-1H-1,2,3-triazol-4-yl)quinolin-3-yl)-1H-pyrazol-1-yl)-N-methylethan-1-amine]	≤ 0.0316	25.1 to 158
Fc1ccc(Cl)cc1-c1[nH]nnc1-c1ccc2ncc(-c3cn[nH]c3)cc2c1 [Compound 18-2, 6-[5-(5-chloro-2-fluoro-phenyl)-1H-triazol-4-yl]-3-(1H-pyrazol-4-yl)quinoline]	0.0398 to 0.316	≤ 20
CC(C)N1CCN(CCNc2cnc3ccc(-c4nn[nH]c4-c4cc(Cl)ccc4F)cc3c2)CC1 [Compound 18-3, 6-(5-(5-chloro-2-fluorophenyl)-1H-1,2,3-triazol-4-yl)-N-(2-(4-isopropylpiperazin-1-yl)ethyl)quinolin-3-amine]	0.398 to 3.16	25.1 to 158
Fc1ccc(Cl)cc1-c1[nH]nnc1-c1ccc2ncc(N3CCNCC3)cc2c1 [Compound 18-5, 6-[5-(5-chloro-2-fluoro-phenyl)-1H-triazol-4-yl]-3-piperazin-1-yl-quinoline]	0.398 to 3.16	25.1 to 158
CN1CCN(C2CCN(c3cnc4ccc(-c5nn[nH]c5-c5cc(Cl)ccc5F)cc4c3)CC2)CC1 [Compound 18-6, 6-[5-(5-chloro-2-fluoro-phenyl)-1H-triazol-4-yl]-3-[4-(4-methylpiperazin-1-yl)-1-piperidyl]quinoline]	0.398 to 3.16	25.1 to 158
Fc1ccc(Cl)cc1-c1[nH]nnc1-c1ccc2ncc(N3CCCNCC3)cc2c1 [Compound 18-7, 6-[5-(5-chloro-2-fluoro-phenyl)-1H-triazol-4-yl]-3-(1,4-diazepan-1-yl)quinoline]	3.98 to 31.6	200 to 1260
Fc1ccc(Cl)cc1-c1nc2ccccn2c1-c1ccc2ncc(-c3cn[nH]c3)cc2c1 [Compound 19-3, 6-[2-(5-chloro-2-fluoro-phenyl)imidazo[1,2-a]pyridin-3-yl]-3-(1H-pyrazol-4-yl)quinoline]	0.398 to 3.16	25.1 to 158
Fc1ccc(Cl)cc1-c1nc2ccccn2c1-c1ccc2ncc(N3CCNCC3)cc2c1 [Compound 19-4, 6-(2-(5-chloro-2-fluorophenyl)imidazo[1,2-a]pyridin-3-yl)-3-(piperazin-1-yl)quinoline]	0.0398 to 0.316	200 to 1260
CN1CCN(C2CCN(c3cnc4ccc(-c5c(-c6cc(Cl)ccc6F)nc6ccccn56)cc4c3)CC2)CC1 [Compound 19-5, 6-[2-(5-chloro-2-fluoro-phenyl)imidazo[1,2-a]pyridin-3-yl]-3-[4-(4-methylpiperazin-1-yl)-1-piperidyl]quinoline]	0.0398 to 0.316	200 to 1260
CC(C)N1CCN(CCNc2cnc3ccc(-c4c(-c5cc(Cl)ccc5F)nc5ccccn45)cc3c2)CC1 [Compound 19-6, 6-(2-(5-chloro-2-fluorophenyl)imidazo[1,2-a]pyridin-3-yl)-N-(2-(4-isopropylpiperazin-1-yl)ethyl)quinolin-3-amine]	0.398 to 3.16	200 to 1260
Fc1ccc(Cl)cc1-c1nc2ccccn2c1-c1ccc2ncc(N3CCCNCC3)cc2c1 [Compound 19-8, 6-[2-(5-chloro-2-fluoro-phenyl)imidazo[1,2-a]pyridin-3-yl]-3-(1,4-diazepan-1-yl)quinoline]	0.398 to 3.16	200 to 1260
CNCCn1cc(-c2cnc3ccc(-c4c(-c5cc(Cl)ccc5F)nnn4Cc4cccnc4)cc3c2)cn1 [Compound 20-1, 2-(4-(6-(4-(5-chloro-2-fluorophenyl)-1-(pyridin-3-ylmethyl)-1H-1,2,3-triazol-5-yl)quinolin-3-yl)-1H-pyrazol-1-yl)-N-methylethan-1-amine]	0.0398 to 0.316	25.1 to 158
CNCCn1cc(-c2cnc3ccc(-c4c(-c5cc(Cl)ccc5F)[nH]c5cccnc45)cc3c2)cn1 [Compound 21-1, 2-(4-(6-(2-(5-chloro-2-fluorophenyl)-1H-pyrrolo[3,2-b]pyridin-3-yl)quinolin-3-yl)-1H-pyrazol-1-yl)-N-methylethan-1-amine]	0.398 to 3.16	200 to 1260
CNCCn1cc(-c2cnc3ccc(-c4nc[nH]c4-c4cc(Cl)c(F)cc4F)cc3c2)cn1 [Compound 22-2, 2-(4-(6-(5-(5-chloro-2,4-difluorophenyl)-1H-imidazol-4-yl)quinolin-3-yl)-1H-pyrazol-1-yl)-N-methylethan-1-amine]	0.0398 to 0.316	25.1 to 158
NCCn1cc(-c2cnc3ccc(-c4nc[nH]c4-c4cc(Cl)c(F)cc4F)cc3c2)cn1 [Compound 22-3, 2-[4-[6-[5-(5-chloro-2,4-difluoro-phenyl)-1H-imidazol-4-yl]-3-quinolyl]pyrazol-1-yl]ethanamine]	0.0398 to 0.316	25.1 to 158

Second part, led by results:

Ki [1] [nM]	SMILES	IC50 [2] [nM]
≤ 0.0316	CNCCn1cc(-c2cnc3ccc(-c4nc[nH]c4-c4cc(Cl)ccc4F)cc3c2)cn1 [Compound 17-2, 2-[4-[6-[5-(5-chloro-2-fluoro-phenyl)-1H-imidazol-4-yl]-3-quinolyl]pyrazol-1-yl]-N-methyl-ethanamine]	25.1 to 158
0.398 to 3.16	Fc1ccc(Cl)cc1-c1[nH]cnc1-c1ccc2ncc(N3CCCNCC3)cc2c1 [Compound 17-6, 6-[5-(5-chloro-2-fluoro-phenyl)-1H-imidazol-4-yl]-3-(1,4-diazepan-1-yl)quinoline]	25.1 to 158
0.0398 to 0.316	CN1CCN(C2CCN(c3cnc4ccc(-c5nc[nH]c5-c5cc(Cl)ccc5F)cc4c3)CC2)CC1 [Compound 17-7, 6-[5-(5-chloro-2-fluoro-phenyl)-1H-imidazol-4-yl]-3-[4-(4-methylpiperazin-1-yl)-1-piperidyl]quinoline]	25.1 to 158
0.0398 to 0.316	Fc1ccc(Cl)cc1-c1[nH]cnc1-c1ccc2ncc(-c3cnc4n3CCN4)cc2c1 [Compound 17-9, 6-(5-(5-chloro-2-fluorophenyl)-1H-imidazol-4-yl)-3-(2,3-dihydro-1H-imidazo[1,2-a]imidazol-5-yl)quinoline]	25.1 to 158
0.0398 to 0.316	Fc1ccc(Cl)cc1-c1[nH]cnc1-c1ccc2ncc(-c3cc4n(n3)CCNC4)cc2c1 [Compound 17-11, 6-[5-(5-chloro-2-fluoro-phenyl)-1H-imidazol-4-yl]-3-(4,5,6,7-tetrahydropyrazolo[1,5-a]pyrazin-2-yl)quinoline]	≤ 20
0.0398 to 0.316	Fc1ccc(Cl)cc1-c1[nH]cnc1-c1ccc2ncc(-c3nc4n(n3)CCNC4)cc2c1 [Compound 17-13, 6-[5-(5-chloro-2-fluoro-phenyl)-1H-imidazol-4-yl]-3-(5,6,7,8-tetrahydro-[1,2,4]triazolo[1,5-a]pyrazin-2-yl)quinoline]	≤ 20
0.0398 to 0.316	CNCCn1cc(-c2cnc3ccc(-c4c(-c5cc(Cl)ccc5F)nc5ccccn45)cc3c2)cn1 [Compound 19-1, 2-(4-(6-(2-(5-chloro-2-fluorophenyl)imidazo[1,2-a]pyridin-3-yl)quinolin-3-yl)-1H-pyrazol-1-yl)-N-methylethan-1-amine]	25.1 to 158
0.0398 to 0.316	Fc1ccc(Cl)cc1-c1nc2ccccn2c1-c1ccc2ncc(-c3cnn(C4CCCNC4)c3)cc2c1 (centres unmarked) [Compound 19-2, 6-[2-(5-chloro-2-fluoro-phenyl)imidazo[1,2-a]pyridin-3-yl]-3-[1-(3-piperidyl)pyrazol-4-yl]quinoline]	200 to 1260
